Experiments:
[1] = tested on: A549 (carcinomic human alveolar basal epithelial cell); assay: CCK-8 cytotoxicity assay, A549; format: cell-based; conditions: for IC50: A549 cells, 48h, CCK-8
Description: (§1) The cytotoxic effects of the newly synthesized diphenyl(tetrahydro-5H-indeno[2,1-c]quinolin-2-yl)phosphine oxides 8, diphenyl(7H-indeno[2,1-c]quinolin-2-yl)phosphine oxides 9, and diphenyl(7-oxo-7H-indeno[2,1-c]quinolin-2-yl)phosphine oxides 10 derivatives were studied against several human cell lines: A549 (carcinomic human alveolar basal epithelial cell), SKOV3 (human ovarian carcinoma), and HEK293 (human embryonic kidney). Furthermore, in order to analyze the selective cytotoxicity facing exclusively cancerous cell lines, toxicity against a non-cancerous cell line (MRC-5, lung fibroblast cells) was also evaluated (Table 3). The cell counting kit (CCK-8) assay was employed to assess the growth inhibition and cell proliferation inhibitory activities of the compounds, which are described in Table 3 as IC50 values.
(§2) Cells were cultured according to the supplier’s instructions. Cells were seeded in 96-well plates at a density of 1.5–3 × 10^3 cells per well and incubated overnight in 0.1 mL of media supplied with 10% Fetal Bovine Serum (Lonza) in a 5% CO2 incubator at 37 °C. On day 2, drugs were added and the samples were incubated for 48h. After treatment, 10 μL of the cell counting kit-8 was added into each well for an additional 2h incubation at 37 °C. The absorbance of each well was determined by an Automatic Elisa Reader System at 450 nm wavelength (deducting 620 nm). CPT was used as the positive control.

human TOP1 [2] = molecular target: T1, human TOP1 (Homo sapiens, UniProt P11387); assay: TOP1 supercoiled plasmid DNA relaxation assay; format: biochemical; conditions: 30 min reaction; compounds at 100 μM; semiquantitative
T1 construct: made in house; host or cells: Saccharomyces cerevisiae TOP1 null strain RS190, plasmid pHT143 (GAL promoter)
T1 sequence (P11387 1-765): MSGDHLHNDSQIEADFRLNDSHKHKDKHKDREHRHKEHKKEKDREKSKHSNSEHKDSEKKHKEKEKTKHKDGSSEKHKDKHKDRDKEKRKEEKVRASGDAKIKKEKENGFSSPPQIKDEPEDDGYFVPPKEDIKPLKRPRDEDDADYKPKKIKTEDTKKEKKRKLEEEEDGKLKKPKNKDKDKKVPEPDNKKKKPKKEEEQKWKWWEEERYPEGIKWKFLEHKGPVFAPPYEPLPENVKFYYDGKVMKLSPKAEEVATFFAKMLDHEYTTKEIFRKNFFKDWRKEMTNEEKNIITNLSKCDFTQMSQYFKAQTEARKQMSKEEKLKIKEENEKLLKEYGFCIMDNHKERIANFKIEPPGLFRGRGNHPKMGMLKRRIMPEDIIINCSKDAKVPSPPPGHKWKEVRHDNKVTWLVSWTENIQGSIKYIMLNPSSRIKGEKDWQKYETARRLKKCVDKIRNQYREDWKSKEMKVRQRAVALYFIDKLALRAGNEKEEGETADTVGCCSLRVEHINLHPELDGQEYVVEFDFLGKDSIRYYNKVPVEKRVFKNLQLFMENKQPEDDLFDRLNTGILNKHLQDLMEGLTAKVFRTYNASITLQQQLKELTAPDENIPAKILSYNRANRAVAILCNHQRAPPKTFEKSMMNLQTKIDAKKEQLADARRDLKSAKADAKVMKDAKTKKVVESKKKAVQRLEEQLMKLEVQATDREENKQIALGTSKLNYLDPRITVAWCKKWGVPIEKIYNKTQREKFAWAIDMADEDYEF

[3] = tested on: MRC-5, lung fibroblast cells; assay: CCK-8 cytotoxicity assay, MRC5; format: cell-based, human; conditions: for IC50: Homo sapiens, MRC5 non-cancerous cells, 48h, CCK-8
Description: as §1, §2

human TOP1 [4] = molecular target: T1, human TOP1; assay: TOP1 supercoiled plasmid DNA relaxation assay; format: biochemical; conditions: for Persistence of TOP1 inhibition over the time course: 100 μM, in words; for TOP1 Inhibition 1 min: 1 min reaction; for TOP1 Inhibition 1 min / TOP1 Inhibition 3 min / TOP1 Inhibition 5 min: compounds at 100 μM, semiquantitative; for TOP1 Inhibition 3 min: 3 min reaction; for TOP1 Inhibition 5 min: 5 min reaction
Description: The effect of the previously prepared compounds as TOP1 inhibitors was studied. A conventional supercoiled plasmid relaxation assay was used to determine if the newly fused tetrahydroindenoquinolines 8, more aromatic indenoquinolines 9, and carbonyl derivatives 10 with phosphine oxide substituents inhibit human TOP1 activity by converting supercoiled plasmid DNA to its relaxed form. In these experiments, compound samples were mixed with the enzyme followed by the addition of a supercoiled plasmid DNA substrate, and incubation continued for increasing time intervals (1 min, 3 min, and 5 min). The reaction was terminated by the addition of SDS. DNA relaxation products were then resolved by 1% agarose electrophoresis gel and visualized by gel red staining.
The yeast Saccaromyces cerevisiae TOP1 null strain RS190, which was used for the expression of recombinant human TOP1, was a kind gift from R. Sternglanz (State University of New York, Stony Brook, NY, USA). Plasmid pHT143, for the expression of recombinant TOP1 under the control of an inducible GAL promoter, was described. The plasmids pHT143 were transformed into the yeast S. cerevisiae strain RS190. The proteins were expressed and purified by affinity chromatography essentially as described. The protein concentrations were estimated from Coomassie blue-stained SDS/polyacrylamide gels by comparison to serial dilutions of bovine serum albumin (BSA).
TOP1 activity was assayed using a DNA relaxation assay by incubating 110 ng/mL of TOP1 with 0.5 µg of negatively supercoiled pUC18 in […] of reaction buffer (20 mM Tris HCl, 0.1 mM Na2EDTA, 10 mM MgCl2, […] acetylated BSA, and 150 mM KCl, pH 7.5). The effect of the synthesized phosphorylated derivatives 8, 9, and 10 on the TOP1 activity was measured by adding different concentrations of the compounds, at different time points, as indicated in the text. The reactions were performed at 37 °C stopped by the addition of 0.5% SDS after the indicated time intervals. The samples were protease-digested and electrophoresed in a horizontal 1% agarose gel in 1xTBE (50 mM Tris, 45 mM boric acid, 1 mM EDTA) at 25V during 18h. The gel was stained with gel red (BIOTIUM, 5 mg/mL), destained with water, and photographed under UV illumination. Since all drugs were dissolved in dimethyl sulfoxide (DMSO), a […] control sample containing the same DMSO concentration as the samples incubated with the drugs was included in all experiments.

[5] = tested on: SKOV3 (human ovarian carcinoma); assay: CCK-8 cytotoxicity assay, SKOV3; format: cell-based; conditions: SK-OV-3, SKOV3 cells, 48h
Description: as §1, §2

[6] = tested on: HEK293 (human embryonic kidney); assay: CCK-8 cytotoxicity assay, HEK293; format: cell-based; conditions: HEK293 cells, 48h
Description: as §1, §2

| SMILES | IC50 ([1]; Homo sapiens, A549, 48 h) [µM] | TOP1 Inhibition 30 min (human TOP1 [2]) | IC50 [3] [µM] | Cytotoxicity against MRC5 (in words) ([3]; non-cancerous cell line) | Persistence of TOP1 inhibition over the time course (human TOP1 [4]) | TOP1 Inhibition 1 min (human TOP1 [4]) | TOP1 Inhibition 3 min (human TOP1 [4]) | TOP1 Inhibition 5 min (human TOP1 [4]) | IC50 [5] [µM] | IC50 [6] [µM] | Cytotoxicity against A549 (in words) [1] | IC50 ([1]; listed as 9k) [µM] |
| --- | --- | --- | --- | --- | --- | --- | --- | --- | --- | --- | --- | --- |
| CC[C@@]1(O)C(=O)OCc2c1cc1n(c2=O)Cc2cc3ccccc3nc2-1 [CPT, camptothecin, reference compound] | 0.001 | − (no inhibition) | 0.11 ± 0.02 | high toxicity | short-term reversible effect | ++ | − (no inhibition) | − (no inhibition) | 0.0055 |  |  |  |
| O=P(c1ccccc1)(c1ccccc1)c1ccc2c(c1)C1c3ccccc3CC1C(c1cccc(F)c1)N2 (centres unmarked) [Compound 8d, Diphenyl(6-(3-fluorophenyl)-6,6a,7,11b-tetrahydro-5H-indeno[2,1-c]quinolin-2-yl)phosphine oxide] | 43.1 ± 12.1 |  | > 50 |  |  | ++ | ++ | ++ | > 50 | > 50 |  |  |
| O=P(c1ccccc1)(c1ccccc1)c1ccc2c(c1)C1c3ccccc3CC1C(c1ccc(F)c(F)c1)N2 (centres unmarked) [Compound 8e, Diphenyl(6-(3,4-difluorophenyl)-6,6a,7,11b-tetrahydro-5H-indeno[2,1-c]quinolin-2-yl)phosphine oxide] | > 50 |  | > 50 |  |  | ++ | ++ | ++ | 13.2 ± 2.79 | > 50 |  |  |
| O=P(c1ccccc1)(c1ccccc1)c1ccc2c(c1)C1c3ccccc3CC1C(c1ccc(F)cc1F)N2 (centres unmarked) [Compound 8f, Diphenyl(6-(2,4-difluorophenyl)-6,6a,7,11b-tetrahydro-5H-indeno[2,1-c]quinolin-2-yl)phosphine oxide] | > 50 |  | > 50 |  |  | + (weak inhibition) | + (weak inhibition) | + (weak inhibition) | 31 ± 3.17 | > 50 |  |  |
| O=P(c1ccccc1)(c1ccccc1)c1ccc2nc(-c3ccccc3)c3c(c2c1)-c1ccccc1C3 [Compound 9a, Diphenyl(6-phenyl-7H-indeno[2,1-c]quinolin-2-yl)phosphine oxide] | > 50 |  | > 50 |  | more persistent inhibition | + (weak inhibition) | ++ | ++ | > 50 | > 50 |  |  |
| O=P(c1ccccc1)(c1ccccc1)c1ccc2nc(-c3ccc(F)cc3)c3c(c2c1)-c1ccccc1C3 [Compound 9c] | > 50 |  | > 50 |  |  | + (weak inhibition) | + (weak inhibition) | + (weak inhibition) | > 50 | > 50 |  |  |
| O=P(c1ccccc1)(c1ccccc1)c1ccc2nc(-c3cccc(F)c3)c3c(c2c1)-c1ccccc1C3 [Compound 9d, Diphenyl(6-(3-fluorophenyl)-7H-indeno[2,1-c]quinolin-2-yl)phosphine oxide] | > 50 |  | > 50 |  |  | + (weak inhibition) | + (weak inhibition) | + (weak inhibition) | > 50 | > 50 |  |  |
| O=P(c1ccccc1)(c1ccccc1)c1ccc2nc(-c3ccc(F)cc3F)c3c(c2c1)-c1ccccc1C3 [Compound 9f, Diphenyl(6-(2,4-difluorophenyl)-7H-indeno[2,1-c]quinolin-2-yl)phosphine oxide] | 41.7 ± 7.25 |  | > 50 |  |  | ++ | ++ | ++ | > 50 | > 50 | slight cytotoxicity |  |
| COc1ccc(-c2nc3ccc(P(=O)(c4ccccc4)c4ccccc4)cc3c3c2Cc2ccccc2-3)cc1 [Compound 9h, Diphenyl(6-(4-methoxyphenyl)-7H-indeno[2,1-c]quinolin-2-yl)phosphine oxide] |  |  |  |  |  | ++ | ++ | ++ |  |  |  |  |
| O=P(c1ccccc1)(c1ccccc1)c1ccc2nc(-c3ccc(Br)cc3)c3c(c2c1)-c1ccccc1C3 [Compound 9j, Diphenyl(6-(4-bromophenyl)-7H-indeno[2,1-c]quinolin-2-yl)phosphine oxide] | 42.3 ± 2.09 |  | > 50 |  |  | + (weak inhibition) | + (weak inhibition) | + (weak inhibition) | > 50 | > 50 | slight cytotoxicity | > 50 |
| O=C1c2ccccc2-c2c1c(-c1cccc(F)c1)nc1ccc(P(=O)(c3ccccc3)c3ccccc3)cc21 [Compound 10d, (6-(3-Fluorophenyl)-7-oxo-7H-indeno[2,1-c]quinolin-2-yl)diphenylphosphine oxide] | > 50 |  | > 50 |  |  | + (weak inhibition) | + (weak inhibition) | + (weak inhibition) | > 50 | > 50 |  |  |
| O=C1c2ccccc2-c2c1c(-c1ccc(F)c(F)c1)nc1ccc(P(=O)(c3ccccc3)c3ccccc3)cc21 [Compound 10e] | > 50 |  | > 50 |  |  | ++ | ++ | ++ | > 50 | > 50 |  |  |

From article PMC11678328, “Phosphine Oxide Indenoquinoline Derivatives: Synthesis and Biological Evaluation as Topoisomerase I Inhibitors and Antiproliferative Agents” (Molecules, 2024)
